The target of assay [1] is MIC1. The assay can be described thus: SPR binding of PROTACs to immobilized antibody MIC1. The note with it: binding of PROTACs to MIC1, steady-state model. As to the method: The binding affinities of hit antibodies MIC1 and MIC2 to a diverse set of VH032-based PROTACs (FIGS. 8A-8B) was determined by surface plasmon resonance (SPR) in a Biacore T200 instrument. The running buffer consist of PBS, 0.05% Tween-20, 2% DMSO and temperature and flow rate were set to 30° C. and 30 μL/min, respectively. The assay setup is depicted exemplarily in FIG. 7A. CM5 sensor chips were coated with antibody (=ligand; 2500 RU) using standard EDC/NHS chemistry. PROTACs (=analytes) were serially diluted (1 μM-1.9 nM) in running buffer, injected to the instrument in consecutive runs and were captured by the antibody resulting in an increase of the corresponding SPR response. After the association step (300 s), running buffer was injected for 600 s and the PROTAC dissociated from the antibody leading to signal decrease. After each run, residual bound PROTAC was removed from the immobilized antibody by injection of 10 mM glycine/HCl, pH 1.5 for 2×30 s regenerating the antibody for the next association and dissociation cycle. To compensate for matrix effects, the measured SPR response signal was subtracted by the analyte response to an inactivated (EDC/NHS, ethanol amine) reference surface omitting the ligand. Furthermore, a DMSO solvent correction was performed and analyte response was subtracted by the running buffer signal. […]

For assay [2], the target named is MIC2. The assay can be described thus: SPR binding of PROTACs to immobilized antibody MIC2. The conditions noted are these: MIC2, 1:1 kinetic binding model. As to the method:
The binding affinities of hit antibodies MIC1 and MIC2 to a diverse set of VH032-based PROTACs (FIGS. 8A-8B) was determined by surface plasmon resonance (SPR) in a Biacore T200 instrument. The running buffer consist of PBS, 0.05% Tween-20, 2% DMSO and temperature and flow rate were set to 30° C. and 30 μL/min, respectively. The assay setup is depicted exemplarily in FIG. 7A. CM5 sensor chips were coated with antibody (=ligand; 2500 RU) using standard EDC/NHS chemistry. PROTACs (=analytes) were serially diluted (1 μM-1.9 nM) in running buffer, injected to the instrument in consecutive runs and were captured by the antibody resulting in an increase of the corresponding SPR response. After the association step (300 s), running buffer was injected for 600 s and the PROTAC dissociated from the antibody leading to signal decrease. After each run, residual bound PROTAC was removed from the immobilized antibody by injection of 10 mM glycine/HCl, pH 1.5 for 2×30 s regenerating the antibody for the next association and dissociation cycle. To compensate for matrix effects, the measured SPR response signal was subtracted by the analyte response to an inactivated (EDC/NHS, ethanol amine) reference surface omitting the ligand. Furthermore, a DMSO solvent correction was performed and analyte response was subtracted by the running buffer signal. The corrected response was fitted by a 1:1 kinetic binding model yielding the on- (kon) and off-rate (koff) of the PROTAC, as well as its dissociation constant (KD).

Assay [3] deals with CD33xMIC7. The assay can be described thus: SPR affinity of VHH clone (antibody fusion) to PROTACs. The conditions noted are these: CD33xMIC7 immobilized, 25° C., read-out: KD [M] for antibody binding to PROTAC. The method, then: (§1) The kinetic and affinity parameters of protein-PROTAC interactions were evaluated by SPR. The anti-PROTAC VHH clones MIC5-MIC14 were immobilized as CD33 or CLL1 antibody fusion (the manufacturing of fusion proteins and the used linker is described in chapter 7.9) onto a CM5 (Series S) sensor chip via the standard amine coupling procedure, at 25° C. Prior to immobilization, the carboxymethylated surface of the chip was activated with 400 mM 1-ethyl-3-(3-dimethylaminopropyl)-carbodiimide and 100 mM N-hydroxysuccinimide for 7 min. Hit anti-PROTAC VHH as CD33 and CLL1 antibody fusions were diluted to 10 μg/ml in 10 mM Acetate at pH 4.5 and immobilized on the activated surface chip for 7 min, in order to reach 3,000 to 6,000 response units (RU). The remaining activated carboxymethylated groups were blocked with a 10 min injection of 1 M ethanolamine pH 8. HBS-N, which consists of 10 mM HEPES pH 7.4 and 150 mM NaCl, was used as the background buffer during immobilization. PROTACs were prediluted in DMSO, diluted 1:50 in running buffer (12 mM phosphate pH 7.4, 137 mM NaCl, 2.7 mM KCl, 0.05% Tween20, 2% DMSO) and injected at ten different concentrations using two-fold dilution series, from 1 μM to 0.002 μM. A DMSO solvent correction (1%-3%) was performed to account for variations in bulk signal and to achieve high-quality data. Interaction analysis cycles consisted of a 300 sec sample injection (30 μL/min; association phase) followed by 900 sec of buffer flow (dissociation phase).
(§2) All sensorgrams were processed by first subtracting the binding response recorded from the control surface (reference flow-channel), followed by subtracting of the buffer blank injection from the active flow-channel (target protein immobilized). All datasets were fit to a simple 1:1 Langmuir interaction model to determine the kinetic rate constants. Experiments were performed on a Biacore 8k+ (Cytiva, Uppsala, Sweden) at 25° C. and the interactions were evaluated using the provided Biacore Insight Evaluation software.

Assay [4] concerns the target CLL1xMIC7. The description is as above. The note with it: CLL1xMIC7 immobilized, 25° C., read-out: KD [M] for antibody binding to PROTAC. As to the method: as §1, §2
Assay [5] deals with A431. The assay can be described thus: CellTiter-Glo cell viability assay (VHH-based PAX). The conditions noted are these: A431, PROTAC alone. As to the method: (§3) Several cell viability experiments were performed following the procedure described below: Cells were seeded in different media into white cell culture-treated flat and clear bottom multiwell plates followed by overnight incubation in a humid chamber at 37° C. and 5% CO2. Complexation was performed as described in chapter 7.4.
(§4) The solutions were added to the cells based on the antibody concentration using nanodrop dispension using a Tecan D300e Digital Dispenser and all wells were normalized to the same volume using 0.3% TW20 in PBS pH 7.4 and DMSO to a final solvent concentration of 0.05% DMSO and 0.003% TW20. Incubation was performed at 37° C. at 5% or 10% CO2 dependent on the medium. The assay was developed after 3 days if not otherwise stated using CellTiter-Glo Luminescent Cell Viability Assay as described in the manufacturer's protocol. In brief, the plates were equilibrated to room temperature for 30 minutes. 100 mL CellTiter-Glo Buffer were added to the CellTiter-Glo Substrate Flask and mixed well. 30 μL of the reagent was transferred to each well. After incubation for 3 minutes at room temperature while shaking at 550 rpm, the plate was incubated for another 10 minutes at room temperature. The luminescence was read on an Envision reader from Perkin Elmer. Solvent alone and Bortezomib (1.0E-05 M) served as high control (100% viability) and low control (0% viability), respectively. Raw data were converted into percent cell viability relative to the high and low control, which were set to 100% and 0%, respectively. […] The concentration corresponds to the concentration of PROTACs in the PAX.

The subject of assay [6] is A549. The assay can be described thus: CellTiter-Glo cell viability assay (VHH-based PAX). The conditions noted are these: A549, PROTAC alone. The method, then: as §3, §4
The subject of assay [7] is HCC827. The assay can be described thus: CellTiter-Glo cell viability assay (VHH-based PAX). The note with it: HCC827, PROTAC alone. The method, then:
as §3, §4

For assay [8], the system named is HEPG2 cells. The assay can be described thus: CellTiter-Glo cell viability assay (VHH-based PAX). The conditions noted are these: HEPG2, PROTAC alone. As to the method: as §3, §4
Assay [9] has as its system MCF7. The assay can be described thus: CellTiter-Glo cell viability assay (VHH-based PAX). The conditions noted are these: MCF7, PROTAC alone. The method, then: as §3, §4
Assay [10] concerns MDAMB468 cells. The assay can be described thus: CellTiter-Glo cell viability assay (VHH-based PAX). The conditions noted are these: MDAMB468, PROTAC alone. As to the method: as §3, §4
Assay [11] deals with NCIN87. The assay can be described thus: CellTiter-Glo cell viability assay (VHH-based PAX). The note with it: NCIN87, PROTAC alone. The method, then:
as §3, §4

Assay [12] deals with OVCAR3. The assay can be described thus: CellTiter-Glo cell viability assay (VHH-based PAX). The note with it: OVCAR3, PROTAC alone. As to the method:
as §3, §4

The test system of assay [13] is SKBR3. The assay can be described thus: CellTiter-Glo cell viability assay (VHH-based PAX). The note with it: SKBR3, PROTAC alone. The method, then: as §3, §4
The subject of assay [14] is SKOV3. The assay can be described thus: CellTiter-Glo cell viability assay (VHH-based PAX). The note with it: SKOV3, PROTAC alone. The method, then: as §3, §4

In the case of `Cc1ncsc1-c1ccc(CNC(=O)[C@@H]2C[C@@H](O)CN2C(=O)[C@@H](NC(=O)COCCOCCOCCNC(=O)C[C@@H]2N=C(c3ccc(Cl)cc3)c3c(sc(C)c3C)-n3c(C)nnc32)C(C)(C)C)cc1` [MZ1], in assay [1], the Kd came out at 4.9 nM. In addition, in [2], the Kd came out at 0.12 nM, the koff entry is given as “NM/1.30E−04 1/s” and the kon result is given as “NM/1.10E+06 1/Ms”.
Consider `Cc1ncsc1-c1ccc(CNC(=O)[C@@H]2C[C@@H](O)CN2C(=O)[C@@H](NC(=O)COCC(C)(COCCOCCOCCNC(=O)C[C@@H]2N=C(c3ccc(Cl)cc3)c3c(sc(C)c3C)-n3c(C)nnc32)COCCOCCOCCNC(=O)C[C@@H]2N=C(c3ccc(Cl)cc3)c3c(sc(C)c3C)-n3c(C)nnc32)C(C)(C)C)cc1` [SIM1], for which the Kd in assay [3] is 3.8e-09 M; in assay [4], under 1e-10 M. Further, the IC50 in assay [5] is 3 nM; in assay [6] it was 17 nM; in [7], 6.5 nM; in [8], 14 nM; in [9], 1.5 nM; in assay [10] it was 7.1 nM. Moreover, the IC50 in [11] amounted to 4 nM; in assay [12] it was 2.8 nM; in [13] it was 3.6 nM; in [14], 2.4 nM.

The values above are taken from patent US20250312468A1, “ANTI-PROTAC ANTIBODIES AND COMPLEXES” (Merck Patent GmbH, priority 2021, published 2025).
